From US8592458B2 (priority 2005, dated 2013)
Structures can show the parent of a compound that is named as a salt. Where two headings read alike, the source gives them in different places.

Experiments:
α7 nAChR = α7 nAChR (Rattus norvegicus, UniProt Q05941); type: binding; conditions: for RELATIVE A7/A4B2 SELECTIVITY / Ki: rat brain membranes; for RELATIVE A7/A4B2 SELECTIVITY: Ki alpha4beta2 / Ki alpha7, divided by the alpha7 selectivity of DMXBA (1.95), DMXBA set to 1.00; for Ki α4β2/α7 Ratio: alpha7 selectivity, not normalized with respect to DMXBA selectivity; for Ki: [125I]alpha-bungarotoxin, n = 2
Chain of α7 nAChR (Q05941 23-502): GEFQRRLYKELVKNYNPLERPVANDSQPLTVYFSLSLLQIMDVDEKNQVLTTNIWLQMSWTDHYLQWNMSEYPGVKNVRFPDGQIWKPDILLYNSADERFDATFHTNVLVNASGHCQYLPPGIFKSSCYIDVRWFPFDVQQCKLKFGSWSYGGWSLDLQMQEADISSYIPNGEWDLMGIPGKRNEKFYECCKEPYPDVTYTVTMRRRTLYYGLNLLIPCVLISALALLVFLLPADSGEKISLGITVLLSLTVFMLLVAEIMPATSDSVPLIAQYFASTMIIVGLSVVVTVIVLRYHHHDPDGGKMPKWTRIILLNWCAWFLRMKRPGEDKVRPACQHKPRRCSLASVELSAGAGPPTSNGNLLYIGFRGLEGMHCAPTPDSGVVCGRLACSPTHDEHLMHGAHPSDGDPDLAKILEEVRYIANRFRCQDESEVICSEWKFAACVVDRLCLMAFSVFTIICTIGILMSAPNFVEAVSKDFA

α4β2 nAChR = α4β2 nAChR (Rattus norvegicus, UniProt P09483+P12390); test: Radioligand binding, displacement of [3H]cytisine from rat brain membranes; conditions: n = 2
Chain of α4β2 nAChR (P09483 31-630): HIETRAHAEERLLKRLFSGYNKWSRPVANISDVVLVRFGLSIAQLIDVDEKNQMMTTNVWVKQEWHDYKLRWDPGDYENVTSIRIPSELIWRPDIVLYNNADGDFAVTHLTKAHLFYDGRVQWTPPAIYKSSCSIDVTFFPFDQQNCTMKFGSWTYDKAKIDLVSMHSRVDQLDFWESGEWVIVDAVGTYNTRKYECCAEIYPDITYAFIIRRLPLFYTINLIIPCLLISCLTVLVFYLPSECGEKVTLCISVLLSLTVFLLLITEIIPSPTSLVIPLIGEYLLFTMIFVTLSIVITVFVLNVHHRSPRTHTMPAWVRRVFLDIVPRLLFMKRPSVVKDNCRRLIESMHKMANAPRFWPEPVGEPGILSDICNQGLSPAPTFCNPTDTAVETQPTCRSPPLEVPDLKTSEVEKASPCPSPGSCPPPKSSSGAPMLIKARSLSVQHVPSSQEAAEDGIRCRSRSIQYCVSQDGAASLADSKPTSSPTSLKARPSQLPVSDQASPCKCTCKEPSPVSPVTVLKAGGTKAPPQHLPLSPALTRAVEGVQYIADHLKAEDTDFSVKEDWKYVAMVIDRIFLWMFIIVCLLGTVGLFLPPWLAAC
Chain of α4β2 nAChR (P12390 25-500): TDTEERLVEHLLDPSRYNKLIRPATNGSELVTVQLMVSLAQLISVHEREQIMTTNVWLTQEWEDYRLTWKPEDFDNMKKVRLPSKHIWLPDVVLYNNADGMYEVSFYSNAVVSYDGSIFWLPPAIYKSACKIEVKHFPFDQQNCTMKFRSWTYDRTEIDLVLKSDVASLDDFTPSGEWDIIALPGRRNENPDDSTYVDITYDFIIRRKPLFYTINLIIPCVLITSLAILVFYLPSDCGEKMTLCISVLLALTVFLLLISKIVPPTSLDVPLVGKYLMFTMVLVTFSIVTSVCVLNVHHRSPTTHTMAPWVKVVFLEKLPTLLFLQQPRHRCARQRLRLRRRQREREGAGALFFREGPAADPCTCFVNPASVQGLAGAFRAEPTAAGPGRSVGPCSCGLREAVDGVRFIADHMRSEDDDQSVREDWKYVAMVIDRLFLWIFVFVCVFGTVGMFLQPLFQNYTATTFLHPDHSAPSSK
Protocol: Assays were performed using the experimental compound to compete for its nAChR binding site with a radioligand that specifically labels either the α4β2 or the α7 nAChR in homogenized Sprague-Dawley rat brain membrane. These assays were used to determine the IC50 of the experimental compounds, which is then used to determine the KI with the Cheng-Prusoff equation.
The 3-arylidene-anabaseine compound was suspended in 50 mM Tris binding saline, with 2 mg/ml BSA, if it was a salt, or in methanol if it was a free base, and dilutions were made in 2 mg/ml BSA Tris binding saline. The final solutions were incubated at 37° C. for approximately 2.5 hours. Once the reaction was assumed to be at equilibrium, it was stopped by harvesting the tissue onto GF/C filters, which were soaked for 45 minutes in a 0.5% polyethylenamine solution to reduce non-specific binding of the radioligand to the filter, using a Brandel tissue harvester. The filters were then placed in gamma tubes and counted on a Beckman counter for 5 minutes per sample. The counts per minute were then assessed, the results were entered, and the IC50s and KIs were determined using the software program Graphpad Prism®. The [^3H]cytisine experiments were performed in a similar manner. First the addition of all of the components: 1 nM [^3H]cytisine, 3-benzylidene-3-arylidene-anabaseine compound (5 nM-50 μM), 0.2 mg rat brain homogenate, and 2 mg/ml BSA Tris solution at a pH of 7.4 to bring the final volume up to 0.5 ml in each tube.
To assess non-specific binding, 1 mM nicotine was added in place of the 3-arylidene-anabaseine. To assess total binding, only the radioligand, tissue, and BSA Tris solution were added. The incubation time and the temperature were altered in this protocol to produce the greatest difference between total and non-specific binding and to maximize the affinity of the radioligand for the receptor, respectively. The incubation time for [^3H]cytisine was 4 hours at 4° C. […] The counts per minute were entered into GraphPad Prism® where the IC50s and the KIs were assessed.
Rat brain membrane was obtained frozen from Pel-Freez Biologicals (Rogers, Ariz.). The protein concentration of the rat brain homogenate was assessed using the bicinchoninic acid (BCA) protein assay kit from Pierce (Rockford, Ill.).
Displacement of ^125I-labelled alpha-bungarotoxin (BTX) measured binding to alpha7 receptors; displacement of [^3H]-labelled cytisine measured binding to alpha4beta2 receptors. […] Nonspecific binding of each radioligand was measured in the presence of 1.0 mM nicotine. […] Bound [3H] […] was measured in a liquid scintillation counter, whereas [125]BTX was measured with use of a Biogamma counter (both from Beckman Coulter).

[1] = Spectrophotometric pKa determination of the imine nitrogen; type: physicochemical; conditions: for % ionized: percent ionization at pH 7.4
Protocol: Thirteen different pH values in the titration region were evaluated (pH: 4, 5, 6, 7, 7.2, 7.5, 7.8, 8, 8.2, 8.5, 8.8, 9, 10). A specific concentration of 3-benzylidene-3-arylidene-anabaseine compound, 1.3×10^−3 M, was added to the potassium phosphate buffers at varied pH values. Each tube was then vortexed and immediately read in a Beckman spectrophotometer. The same glass cuvette was used with every sample. The glass cuvette was thoroughly rinsed with distilled deionized water between different pH samples. The wavelength scan was set to a range of 250-600 nm. The pH with the highest change in absorbance was determined. The wavelength at the highest change in absorbance and the absorbance values for all of the different pH samples at this wavelength were entered into the Enzfitter software (Elsevier-Biosoft, Cambridge, UK) in order to estimate each pKa value.

[2] = Octanol/water partition coefficient by RP-HPLC; type: physicochemical; conditions: 1-octanol/sodium phosphate buffer; 1-octanol / 10 mM sodium phosphate buffer pH 7.4 with 150 mM NaCl, corrected for ionization
Protocol: P is the ratio of the concentration of an un-ionized form of a compound in octanol relative to the unionized concentration of the compound in an aqueous phase containing 150 mM NaCl (to approximate physiological conditions), after the two phases have equilibrated. Log P values were determined for each test compound by RP-HPLC analysis. Approximately 1 mg of each compound was weighed out and placed in equal volumes, 3 ml 10 mM sodium phosphate buffer, pH 7.4, which contained 150 mM NaCl, and 1-octanol. Previously, equal volumes of the sodium phosphate buffer and 1-octanol were added to a separatory funnel and allowed to equilibrate overnight. The equilibrated sodium phosphate buffer was checked prior to its addition to the compound for a pH of 7.4. Once these phases were added to the weighed compound, the solutions were allowed to equilibrate overnight on a gentle shaker at room temperature. The samples were centrifuged at […] for 5 minutes and octanol phase carefully removed with a Pasteur pipette. The pH of the water phase was remeasured in order to calculate the corrected Log P value.
Since large concentrations of octanol cannot be directly injected into the HPLC without affecting the elution of the compound being measured, the compound was extracted from the separated octanol phase with an acidic 150 mM NaCl solution adjusted to a pH of approximately 2.6 (with 100 mM glacial acetic acid). The acidic saline solution was allowed to gently mix with the octanol phase for 20 minutes on a shaker at room temperature. The samples containing the octanol and acidic saline phases were then centrifuged at 1,000×g for 5 minutes and the upper octanol phase was carefully removed with a Pasteur pipette. This back extraction step was repeated at least two and sometimes three times. All three or four back extracted solutions for a particular compound were then combined. Both the original aqueous and the back extracted octanol phases were then diluted with 50 mM ammonium acetate buffer, pH 4.5. The diluted samples were then transferred by pipette to autosampler tubes and subsequently […] of each diluted sample was injected into the HPLC. The area under the curve (AUC) of an absorbance peak was determined for samples from both (octanol and aqueous) of the original phases. Taking into account the dilutions of each sample phase during its preparation for HPLC determination, Log P (taking into consideration the percent ionization at pH 7.4) was then calculated.

[3] = imine nitrogen, room temperature, 50 mM potassium phosphate buffer, 150 mM NaCl

## COc1ccc(C=C2CC(C)CN=C2c2cccnc2)c(OC)c1 (stereo not drawn) [Least selective enantiomer of 5-Methyl-DMXBA, 3-(2,4-dimethoxybenzylidene)-(5-methyl)-3,4,5,6-tetrahydro-2,3′-bipyridine]
α7 nAChR
  RELATIVE A7/A4B2 SELECTIVITY: 1.03

## COc1ccc(C=C2CC(C)CN=C2c2cccnc2)c(OC)c1 (racemic) [(S,R)-5-Methyl-DMXBA, 3-(2,4-dimethoxybenzylidene)-(5-methyl)-3,4,5,6-tetrahydro-2,3′-bipyridine]
α7 nAChR
  RELATIVE A7/A4B2 SELECTIVITY: 1.31

## CC1CCCC(c2cccnc2)=N1 (racemic) [(S,R)-6-Methyl-Anabaseine, 6-methyl-anabaseine]
α7 nAChR
  RELATIVE A7/A4B2 SELECTIVITY: 1.19

## CC1CCC(c2cccnc2)=NC1 (racemic) [(S,R)-5-Methyl-Anabaseine, 5-Methyl-Anabaseine]
α7 nAChR
  RELATIVE A7/A4B2 SELECTIVITY: 0.38

## c1cncc(C2=NCCCC2)c1 [Anabaseine, reference compound]
α7 nAChR
  RELATIVE A7/A4B2 SELECTIVITY: 0.69

## COc1cc(O[C@@H]2O[C@H](C(=O)O)[C@@H](O)[C@H](O)[C@H]2O)ccc1C=C1CCCN=C1c1cccnc1 [3-(4-Beta-Glucuronidyl-2-methoxyB)A, 3-(4-Glucuronido-2-methoxybenzylidene)-anabaseine]
α7 nAChR
  RELATIVE A7/A4B2 SELECTIVITY: 9.40

## COc1ccc(C=C2CCC(C)N=C2c2cccnc2)c(OC)c1 (stereo not drawn) [Most selective enantiomer of 6-Methyl-DMXBA, 3-(2,4-dimethoxybenzylidene)-(6-methyl)-3,4,5,6-tetrahydro-2,3′-bipyridine]
α7 nAChR
  RELATIVE A7/A4B2 SELECTIVITY: 5.34

## CC1CCN=C(c2cccnc2)C1 (racemic) [(S,R)-4-Methyl-Anabaseine, 4-Methyl-anabaseine]
α7 nAChR
  RELATIVE A7/A4B2 SELECTIVITY: 0.69

## COc1ccc2cc(/C=C3\CCCN=C3c3cccnc3)ccc2c1 (as salt: hydrochloride) [3-[(6-Methoxy-naphth-2-yl)-methylene]-anabaseine dihydrochloride]
other
  melting point: 223 to 226 °C

## COc1ccc(C=C2C(c3cccnc3)=NCCC2C)c(OC)c1 (stereo not drawn) [Least selective enantiomer of 4-Methyl-DMXBA, 3-(2,4-dimethoxybenzylidene)-(4-methyl)-3,4,5,6-tetrahydro-2,3′-bipyridine]
α7 nAChR; listed as 4-methyl-DMXBA enantiomer which had a longer retention time
  RELATIVE A7/A4B2 SELECTIVITY: 1.28

## COc1ccc(/C=C2\CCCN=C2c2cccnc2)c(OC)c1 [DMXBA (GTS-21), (E)-3-(2,4-dimethoxybenzylidene)-3,4,5,6-tetrahydro-2,3′-bipyridine, reference compound]
α7 nAChR
  RELATIVE A7/A4B2 SELECTIVITY: 1.00

## COc1ccc(C=C2CC(C)CN=C2c2cccnc2)c(OC)c1 (stereo not drawn) [Most selective enantiomer of 5-Methyl-DMXBA, 3-(2,4-dimethoxybenzylidene)-(5-methyl)-3,4,5,6-tetrahydro-2,3′-bipyridine]
α7 nAChR
  RELATIVE A7/A4B2 SELECTIVITY: 2.34

## COc1ccc(C=C2CCC(C)N=C2c2cccnc2)c(OC)c1 (stereo not drawn) [Least selective enantiomer of 6-Methyl-DMXBA, 3-(2,4-dimethoxybenzylidene)-(6-methyl)-3,4,5,6-tetrahydro-2,3′-bipyridine]
α7 nAChR
  RELATIVE A7/A4B2 SELECTIVITY: 2.93

## C(=C1/CCCN=C1c1cccnc1)/c1ccc2c(c1)OCO2 [3-[3,4-(Methylenedioxy)benzylidene]-anabaseine]
α7 nAChR
  Ki α4β2/α7 Ratio: 3.04
  Ki: 0.23 ± 0.002 µM
α4β2 nAChR
  Ki: 0.7 ± 0.07 µM
[1]; [3]
  pKa: 7.64 ± 0.04
[1]
  % ionized: 63.48%
[2]
  logP: 2.43

## COc1ccc(C=C2C(c3cccnc3)=NCCC2C)c(OC)c1 (stereo not drawn) [Most selective enantiomer of 4-Methyl-DMXBA, 3-(2,4-dimethoxybenzylidene)-(4-methyl)-3,4,5,6-tetrahydro-2,3′-bipyridine]
α7 nAChR
  RELATIVE A7/A4B2 SELECTIVITY: 8.34
α7 nAChR; rat brain nAChR, compared with the other enantiomer
  relative alpha7 nAChR (versus alpha4beta2) receptor binding selectivity, higher than that of the other enantiomer: 6.5 fold

## C(=C1/CCCN=C1c1cccnc1)/c1cc2ccccc2o1 [3-[(Benzofuran-2-yl)methylene]-anabaseine]
α7 nAChR
  Ki α4β2/α7 Ratio: 39.5
  Ki: 0.15 ± 0.003 µM
α4β2 nAChR
  Ki: 5.92 ± 1.06 µM
[1]; [3]
  PKa: 9/2/04
[1]
  % ionized: 33.90%
[2]
  logP: 3.86 ± 0.4

## COc1ccc(C=C2CCC(C)N=C2c2cccnc2)c(OC)c1 (racemic) [(S,R)-6-Methyl-DMXBA, 3-(2,4-dimethoxybenzylidene)-(6-methyl)-3,4,5,6-tetrahydro-2,3′-bipyridine]
α7 nAChR
  RELATIVE A7/A4B2 SELECTIVITY: 3.67

## COc1ccc(C=C2C(c3cccnc3)=NCCC2C)c(OC)c1 (racemic) [(S,R)-4-Methyl-DMXBA, 3-(2,4-dimethoxybenzylidene)-(4-methyl)-3,4,5,6-tetrahydro-2,3′-bipyridine]
α7 nAChR
  RELATIVE A7/A4B2 SELECTIVITY: 4.10

## C(=C1/CCCN=C1c1cccnc1)/c1ccc2c(c1)OCCO2 [3-[3,4-(Ethylenedioxy)benzylidene]-anabaseine]
α7 nAChR
  Ki α4β2/α7 Ratio: 2.60
  Ki: 0.2 ± 0.01 µM
α4β2 nAChR
  Ki: 0.52 ± 0.01 µM
[1]; [3]
  pKa: 7.56 ± 0.03
[1]
  % ionized: 59.11%
[2]
  logP: 3.1

## COc1ccc2cc(/C=C3\CCCN=C3c3cccnc3)ccc2c1 [3-[(6-Methoxy-naphth-2-yl)-methylene]-anabaseine dihydrochloride]
α7 nAChR
  Ki α4β2/α7 Ratio: 1.62
  Ki: 0.37 ± 0.03 µM
α4β2 nAChR
  Ki: 0.6 ± 0.1 µM
[1]; [3]
  pKa: 7.29 ± 0.12
[1]
  % ionized: 43.67%
[2]
  logP: 2.65

## 4′-Methyl-DMXBA
α7 nAChR
  RELATIVE A7/A4B2 SELECTIVITY: 14.8
